Results on 29 compounds are retold here after patent US12295938B2, “Composition for treating castration-resistant prostate cancer, comprising quassinoids” (SAMSUNG LIFE PUBLIC WELFARE FOUNDATION, priority 2019, dated 2025).

The test system of experiment [1] is AR-V7 transcriptional activity. Kind of experiment: MMTV-LUC luciferase reporter assay in 22RV1 cells, DHT− (screening and IC50). The class given is cell-based. Conditions: 22RV1 cells, no DHT, control = 100; for activity at 1 µM / activity at 10 µM: Homo sapiens.
Protocol: (§1) A library of antimalarial agents was screened using a luciferase reporter assay to measure changes in AR/AR-V7 transcriptional activity.
(§2) Screening was made primarily with 10 μM of each drug.
The subject of experiment [2] is AR transcriptional activity. Kind of experiment: MMTV-LUC luciferase reporter assay in 22RV1 cells, DHT+ (screening and IC50). Conditions: with DHT, control = 100; for activity at 10 µM / activity at 1 µM: Homo sapiens. The class given is cell-based.
Protocol: as §1, §2

On to `O=C(Nc1ccc([N+](=O)[O-])cc1Cl)c1cc(Cl)ccc1O` [Niclosamide], for which the activity at 1 µM in experiment [1] (1 uM) stood at 119 ± 10.8%. For the same compound, the activity at 10 µM in experiment [1] (10 uM) turned out to be 9.4 ± 0.6%.
In the case of `C=C1CC[C@@H]2[C@](C)(CO)[C@H](O)CC[C@@]2(C)[C@@H]1C/C=C1/C(=O)OC[C@H]1O` [Andrographolide], the activity at 10 µM in experiment [1] (10 uM) came out at 157 ± 4.3%; in experiment [2] (10 uM), 196 ± 5%.
With `COC(=O)[C@]12OC[C@]34[C@H]([C@@H](O)[C@@H]1O)[C@@]1(C)C=C(O[C@@H]5O[C@H](CO)[C@@H](O)[C@H](O)[C@H]5O)C(=O)[C@@H](C)[C@@H]1C[C@H]3OC(=O)[C@H](OC(=O)/C=C(\C)C(C)C)[C@@H]24` [Bruceantinoside A], the “MMTV-LUC activity (%) DHT−” value in experiment [1] (0.1 uM) was 44.9 ± 5.5%; in experiment [1] (1 uM) it was 11.5 ± 5.6%; in experiment [1] (10 uM), 6.5 ± 0.9%. For the same compound, the “MMTV-LUC activity (%) DHT+” value in experiment [2] (0.1 uM) was found to be 61.0 ± 7.3%; in experiment [2] (1 uM), 8.0 ± 0.2%; in experiment [2] (10 uM), 3.8 ± 1.1%.
On to `COC(=O)[C@]12OC[C@]34[C@H]([C@@H](O)[C@@H]1O)[C@@]1(C)C=C(O[C@@H]5O[C@H](CO)[C@@H](O)[C@H](O)[C@H]5O)C(=O)[C@@H](C)[C@@H]1C[C@H]3OC(=O)[C@H](OC(=O)/C=C(\C)C(C)(C)O)[C@@H]24` [Yadanzioside C], for which the entries for the “MMTV-LUC activity (%) DHT−” value in experiment [1] (1 uM) and in experiment [1] (10 uM) were 118.9 ± 18.1% and 110.4 ± 11.6%, respectively. For the same compound, the “MMTV-LUC activity (%) DHT+” value in experiment [2] (1 uM) was 55.6 ± 0.7%; in experiment [2] (10 uM), 5.8 ± 0.7%.
With `CC1CCCC=CC(=O)c2c(O)cc(O)cc2CC(=O)O1` (stereo not shown) [10,11-Dehydrocurvularin], the “MMTV-LUC activity (%) DHT−” value in experiment [1] (1 uM) worked out at 383.1 ± 24.6%; in experiment [1] (10 uM), 16.3 ± 2.5%. For the same compound, the entries for the “MMTV-LUC activity (%) DHT+” value in experiment [2] (1 uM) and in experiment [2] (10 uM) were 206.9 ± 15.0% and 5.5 ± 0.6%, respectively.
Regarding `CC1CCCCCC(=O)c2c(O)cc(O)cc2CC(=O)O1` (stereo not shown) [Curvularin], the activity at 10 µM was determined as 76.8 ± 3% in experiment [1] (10 uM) and 91.6 ± 9.4% in experiment [2] (10 uM).
Take `COC(=O)[C@]12OC[C@]34[C@H]([C@@H](O)[C@@H]1O)[C@@]1(C)CC(=O)C(O[C@@H]5O[C@H](CO)[C@@H](O)[C@H](O)[C@H]5O)=C(C)[C@@H]1C[C@H]3OC(=O)[C@H](OC(C)=O)[C@@H]24` [Yadanzioside I]: the “MMTV-LUC activity (%) DHT−” value in experiment [1] (10 uM) worked out at 123.2 ± 10.4%. The “MMTV-LUC activity (%) DHT+” value in experiment [2] (10 uM) came to 136.0 ± 7.1%.
For `CC1=CC(=O)c2c(O)cccc2C1=O` [Plumbagin], the activity at 1 µM stood at 215 ± 16.1% in experiment [1] (1 uM) and 143 ± 27.5% in experiment [2] (1 uM). Further, the values for the activity at 10 µM in experiment [1] (10 uM) and in experiment [2] (10 uM) were 26 ± 7.6% and 7.1 ± 0.1%, respectively.
For `COC(=O)c1c2c(c3ccccc3c1O)OC(C)(C)C=C2` [Mollugin], the activity at 10 µM in experiment [1] (10 uM) is 94.7 ± 9.5%; in experiment [2] (10 uM), 112 ± 11.1%.
`CNC(=O)c1ccc(N2C(=S)N(c3ccc(C#N)c(C(F)(F)F)c3)C(=O)C2(C)C)cc1F` [Enzalutamide]: in experiment [1] (1 uM), the activity at 1 µM turned out to be 87.4 ± 11.3%. Also, in experiment [1] (10 uM), the activity at 10 µM worked out at 79.4 ± 34.6%.
As for `CC(=O)O[C@H](CC=C(C)C)C1=CC(=O)c2c(O)ccc(O)c2C1=O` [Acetylshikonin], the values for the activity at 1 µM in experiment [1] (1 uM) and in experiment [2] (1 uM) were 103 ± 7.7% and 113 ± 16.6%, respectively. In addition, the activity at 10 µM amounted to 38.6 ± 3.2% in experiment [1] (10 uM) and 17.7 ± 1.5% in experiment [2] (10 uM).
In the case of `CC[C@](C)(O)C(=O)O[C@H]1C(=O)O[C@@H]2C[C@H]3C(C)=CC(=O)[C@@H](O)[C@]3(C)[C@H]3[C@@]4(O)OC[C@]32[C@@H]1[C@@H](C)[C@H]4O` [(+)-Glaucarubinone], the “MMTV-LUC activity (%) DHT−” value in experiment [1] (10 uM) was 107.6 ± 26.5%. For the same compound, the “MMTV-LUC activity (%) DHT+” value in experiment [2] (10 uM) was found to be 117.7 ± 3.5%.
`CCc1nc(N)nc(N)c1-c1ccc(Cl)cc1` [Pyrimethamine]: the activity at 10 µM in experiment [1] (10 uM) worked out at 130.5 ± 0.2%.
Consider `C=CCc1ccc(O)c(-c2cc(CC=C)ccc2O)c1` [Magnolol], for which the activity at 10 µM worked out at 130 ± 12% in experiment [1] (10 uM) and 152 ± 8.6% in experiment [2] (10 uM).
Consider `COC1=C[C@@H](C)[C@@H]2C[C@H]3OC(=O)C[C@H]4C(C)=C(OC)C(=O)[C@H]([C@@]2(C)C1=O)[C@@]34C` [Quassin], for which the activity at 10 µM in experiment [1] (10 uM) was determined as 110 ± 9%; in experiment [2] (10 uM), 120 ± 5.6%.
On to `COC(=O)[C@]12OC[C@]34[C@H]([C@@H](O)[C@@H]1O)[C@@]1(C)C=C(O[C@@H]5O[C@H](CO)[C@@H](O)[C@H](O)[C@H]5O)C(=O)[C@@H](C)[C@@H]1C[C@H]3OC(=O)[C@H](OC(C)=O)[C@@H]24` [Yadanzioside F], for which, in experiment [1] (10 uM), the “MMTV-LUC activity (%) DHT−” value is on record as 133.6 ± 21.7%. Further, the “MMTV-LUC activity (%) DHT+” value in experiment [2] (10 uM) is recorded as 139.5 ± 11.0%.
`O=C1c2c(O)cccc2C([C@@H]2O[C@H](CO)[C@@H](O)[C@H](O)[C@H]2O)c2cc(CO)cc(O)c21` (stereo partly shown) [Aloin A]: the “MMTV-LUC activity (%) DHT−” value in experiment [1] (10 uM) came to 108.3 ± 5.0%.
Take `CC1=CC(=O)[C@@H](O)[C@@]2(C)[C@H]1[C@@H](O)[C@H]1OC(=O)[C@H](O)[C@]3(O)[C@]14CO[C@]3(CO)[C@@H](O)[C@H](O)[C@H]24` [Yadanziolide B]: the “MMTV-LUC activity (%) DHT−” value is 23.1 ± 5.2% in experiment [1] (0.1 uM), 7.2 ± 0.8% in experiment [1] (1 uM) and 8.2 ± 1.0% in experiment [1] (10 uM). The “MMTV-LUC activity (%) DHT+” value is listed as 32.8 ± 9.0% in experiment [2] (0.1 uM), 4.2 ± 0.4% in experiment [2] (1 uM) and 4.0 ± 0.5% in experiment [2] (10 uM).
Regarding `CC(=O)Oc1cccc2c1C(=O)c1c(OC(C)=O)cc(C(=O)O)cc1C2=O` [1,8-Diacetoxy-3-carboxyanthraquinone], the activity at 10 µM was 101 ± 8.7% in experiment [1] (10 uM) and 98.5 ± 2.1% in experiment [2] (10 uM).
Regarding `CCCCN(CCCC)CC(O)c1cc(Cl)cc2c1-c1ccc(Cl)cc1/C2=C/c1ccc(Cl)cc1` (stereo not shown) [Lumefantrine], the activity at 10 µM in experiment [1] (10 uM) worked out at 138 ± 9.5%.
Consider `O=C(O)c1cc(O)c2c(c1)C(=O)c1cccc(O)c1C2=O` [Rhein], for which the activity at 10 µM in experiment [1] (10 uM) was determined as 83 ± 9.2%.
Consider `COc1ncnc(NS(=O)(=O)c2ccc(N)cc2)c1OC` [Sulfadoxine], for which the activity at 10 µM in experiment [1] (10 uM) amounted to 116 ± 4.4%.
Consider `O=C(CCc1ccc(O)cc1)c1c(O)cc(O)cc1O[C@@H]1O[C@H](CO)[C@@H](O)[C@H](O)[C@H]1O` [Phlorizin], for which the activity at 10 µM in experiment [1] (10 uM) stood at 154 ± 6.6%; in experiment [2] (10 uM), 184 ± 12.6%.
Take `C[C@H]1[C@H](OC(=O)CCC(=O)O)O[C@@H]2O[C@@]3(C)CC[C@H]4[C@H](C)CC[C@@H]1[C@@]24OO3` [Artesunate]: the activity at 10 µM in experiment [1] (10 uM) stood at 107.6 ± 0.8%.
Regarding `C=CC(C)(C)c1cc(/C=C/C(=O)c2ccc(O)cc2)c(OC)cc1O` [Licochalcone A], in experiment [1] (10 uM), the “MMTV-LUC activity (%) DHT−” value came to 202.7 ± 7.1%. Besides, the “MMTV-LUC activity (%) DHT+” value in experiment [2] (10 uM) came out at 235.6 ± 0.2%.
As for `COC(=O)[C@]12OC[C@]34[C@H]([C@@H](O)[C@@H]1O)[C@@]1(C)CC(=O)C(O)=C(C)[C@@H]1C[C@H]3OC(=O)[C@H](OC(=O)/C=C(\C)C(C)(C)OC(C)=O)[C@@H]24` [Bruceantinol], the figures for the activity at 1 µM in experiment [1] (1 uM) and in experiment [2] (1 uM) were 73.5 ± 11.9% and 119 ± 21.8%, respectively. For the same compound, the activity at 10 µM in experiment [1] (10 uM) was 81.2 ± 62.1%; in experiment [2] (10 uM), 44.5 ± 2.1%.
With `O=C(O)c1cc(O)c2c(c1)[C@H]([C@H]1c3cc(C(=O)O)cc(O)c3C(=O)c3c(O[C@@H]4O[C@H](CO)[C@@H](O)[C@H](O)[C@H]4O)cccc31)c1cccc(O[C@@H]3O[C@H](CO)[C@@H](O)[C@H](O)[C@H]3O)c1C2=O` [Sennoside A], the “MMTV-LUC activity (%) DHT−” value in experiment [1] (10 uM) was found to be 105.5 ± 4.4%.
In the case of `CCN(CCO)CCCC(C)Nc1ccnc2cc(Cl)ccc12` (stereo not shown) [Hydroxychloroquinesulfate], the activity at 10 µM in experiment [1] (10 uM) came out at 92.3 ± 2%.
For `O=C1c2cccc(O)c2C(=O)c2c(O)cccc21` [1,8-Dihydroxyanthraquinone], in experiment [1] (10 uM), the activity at 10 µM came to 83.8 ± 2.9%.
